In US11154529B2, “Phosphaplatin liquid formulations” (Phosplatin Therapeutics Inc., priority 2016, dated 2021):

Experiment: Ready-to-use formulation stability at 25° C./60% RH, 5 mg/mL (R,R)-pyrodach-2 in 10 mM Potassium Phosphate Buffer at pH 7.2, 10 mL vials
Assay type: physicochemical
Method: A scalable and commercially viable process for the manufacture of a ready-to-use formulation of (R,R)-pyrodach-2 in 10 mM buffer adjusted to a pH of 7.0-7.5 comprises the steps of: a) preparing a 10 mM aqueous solution of buffer; b) adding sufficient hydroxide base to effect neutralization of the added (R,R)-pyrodach-2 to reach a pH of about 7; c) adding (R,R)-pyrodach-2 and allowing it to dissolve; d) if necessary adding additional hydroxide to adjust the pH into a range of about 7.0-7.5; and e) filtering the solution under sterile conditions, filling the solution into glass vials, and covering it with a stopper and/or a cap. Stability data on two large batches of 5 mg/mL (R,R)-pyrodach-2 in 10 mM potassium phosphate buffer were generated. One such batch at pH=7.2 was evaluated at both 25° C./60% RH and refrigerated (2-8° C.) conditions, with data summarized in Table 4 and Table 5, respectively. […] Similar observations have been made for the ready-to-use liquid formulation at pH7.4, as illustrated in Table 6 and Table 7.
• Transfer 4564.6 mg±0.5 mg of potassium phosphate dibasic, trihydrate to a 2-L volumetric flask. • Fill flask to approximately 75% volume with water, swirl as needed to dissolve all solids. • Volumetrically transfer 32.0 mL of 1N KOH to flask. • Dilute flask to volume with water and mix well. • Record pH of final solution. This is the diluent. • Transfer 7653.1 mg±0.5 mg of (R,R)-pyrodach-2 to a compounding vessel. • Transfer 1500 mL of the diluent to the vessel and stir to dissolve solids. • Record pH of final solution. • Pass entire solution through a 0.22 μm sterile filter membrane into a sterile collection vessel. • Calculate (R,R)-pyrodach-2 solution concentration
To a […] glass beaker equipped with mechanical mixer was add 24645.5 g of sterile water for injection. With agitation 47.03 gm of dibasic potassium phosphate USP was added and the solids allowed to dissolve. To the stirred solution was added 253.8 gm of 1.00 N potassium hydroxide. Sterile water for injection USP (900.0 gm) was used as a rinse to facilitate both additions. With vigorous agitation, (R,R)-pyrodach-2 (201.87 gm) was slowly added and agitation continued until all of the solids dissolved. Sterile water for injection USP (900.0 gm) was used as a rinse to facilitate the addition. The pH was determined to be 6.7. A total of 85 mL of 1.00 N potassium hydroxide was added in 5.0 mL aliquots to adjust the pH to 7.3. The solution was sterile filtered through 0.22μ Millipore Millipack filter and aseptically filled, 10 ml top a vial in 10 mL in 10 cc Wheaton clear molded vails, stoppered with a 20 mm stopper and crimp seal capped.

O=P1(O)OP(=O)(O)[O][Pt]2([NH][C@@H]3CCCC[C@H]3[NH]2)[O]1 (stereo partly drawn) [(R,R)-pyrodach-2, (R,R)-trans-1,2-cyclohexanediamine-(dihydrogenpyrophosphato)platinum(II)]
(DACH) Pt-diaquo (~RRT 0.3) (1 Month): 0.15%
(DACH) Pt-monoaquo (~RRT 0.7) (1 Month): 0.75%
Assay (Potency) (1 Month): 96.5%
PT-112 Dimer (~RRT 4.0) (1 Month): 0.33%
RRT 0.58 (1 Month): 0.13%
RRT 0.67 (1 Month): 0.06%
RRT 3.1-3.2 (1 Month): 0.22%
Total Related Substances (1 Month): 2%
pH (1 Month): 7.2
(DACH) Pt-diaquo (~RRT 0.3) (2 Month): 0.09%
(DACH) Pt-monoaquo (~RRT 0.7) (2 Month): 0.96%
Assay (Potency) (2 Month): 99.5%
PT-112 Dimer (~RRT 4.0) (2 Month): 0.36%
RRT 0.50 (2 Month): 0.05%
RRT 0.58 (2 Month): 0.15%
RRT 0.67 (2 Month): 0.09%
RRT 3.1-3.2 (2 Month): 0.32%
RRT 3.65 (2 Month): 0.08%
Total Related Substances (2 Month): 2%
pH (2 Month): 7.2
(DACH) Pt-diaquo (~RRT 0.3) (3 Month): 0.19%
(DACH) Pt-monoaquo (~RRT 0.7) (3 Month): 0.73%
Assay (Potency) (3 Month): 98.2%
PT-112 Dimer (~RRT 4.0) (3 Month): 0.37%
RRT 0.50 (3 Month): 0.08%
RRT 0.58 (3 Month): 0.18%
RRT 0.67 (3 Month): 0.06%
RRT 3.1-3.2 (3 Month): 0.37%
RRT 3.65 (3 Month): 0.11%
Total Related Substances (3 Month): 2%
pH (3 Month): 7.3
(DACH) Pt-diaquo (~RRT 0.3) (4 Month): 0.13%
(DACH) Pt-monoaquo (~RRT 0.7) (4 Month): 1.05%
Assay (Potency) (4 Month): 97.9%
PT-112 Dimer (~RRT 4.0) (4 Month): 0.36%
RRT 0.50 (4 Month): 0.09%
RRT 0.58 (4 Month): 0.20%
RRT 0.67 (4 Month): 0.07%
RRT 3.1-3.2 (4 Month): 0.38%
RRT 3.46 (4 Month): 0.05%
RRT 3.65 (4 Month): 0.13%
Total Related Substances (4 Month): 2%
pH (4 Month): 7.1
(DACH) Pt-diaquo (~RRT 0.3) (6 Month): 0.15%
(DACH) Pt-monoaquo (~RRT 0.7) (6 Month): 1.03%
Assay (Potency) (6 Month): 97.5%
PT-112 Dimer (~RRT 4.0) (6 Month): 0.37%
RRT 0.50 (6 Month): 0.15%
RRT 0.58 (6 Month): 0.21%
RRT 0.67 (6 Month): 0.07%
RRT 0.86 (6 Month): 0.05%
RRT 3.1-3.2 (6 Month): 0.40%
RRT 3.65 (6 Month): 0.24%
RRT 4.97 (6 Month): 0.05%
Total Related Substances (6 Month): 3%
pH (6 Month): 7.2
Particulate Matter (Light Obscuration) (6 Month, first value): 20 particles particles per container
Particulate Matter (Light Obscuration) (6 Month, second value): 3 particles particles per container
(DACH) Pt-diaquo (~RRT 0.3) (9 Month): 0.16%
(DACH) Pt-monoaquo (~RRT 0.7) (9 Month): 1.10%
Assay (Potency) (9 Month): 96.8%
PT-112 Dimer (~RRT 4.0) (9 Month): 0.39%
RRT 0.50 (9 Month): 0.19%
RRT 0.58 (9 Month): 0.27%
RRT 0.67 (9 Month): 0.10%
RRT 0.86 (9 Month): 0.05%
RRT 3.1-3.2 (9 Month): 0.30%
RRT 3.65 (9 Month): 0.39%
RRT 4.97 (9 Month): 0.08%
Total Related Substances (9 Month): 3%
pH (9 Month): 7.2
(DACH) Pt-diaquo (~RRT 0.3) (12 Month): 0.18%
(DACH) Pt-monoaquo (~RRT 0.7) (12 Month): 0.91%
Assay (Potency) (12 Month): 96.8%
PT-112 Dimer (~RRT 4.0) (12 Month): 0.33%
RRT 0.41 (12 Month): 0.05%
RRT 0.50 (12 Month): 0.26%
RRT 0.58 (12 Month): 0.26%
RRT 0.67 (12 Month): 0.13%
RRT 0.86 (12 Month): 0.05%
RRT 3.1-3.2 (12 Month): 0.44%
RRT 3.65 (12 Month): 0.52%
RRT 4.97 (12 Month): 0.20%
Total Related Substances (12 Month): 3%
pH (12 Month): 7.2
Particulate Matter (Light Obscuration) (12 Month, first value): 36 particles particles per container
Particulate Matter (Light Obscuration) (12 Month, second value): 2 particles particles per container
(DACH) Pt-diaquo (~RRT 0.3) (15 Month): 0.14%
(DACH) Pt-monoaquo (~RRT 0.7) (15 Month): 0.84%
Assay (Potency) (15 Month): 98.1%
PT-112 Dimer (~RRT 4.0) (15 Month): 0.29%
RRT 0.41 (15 Month): 0.07%
RRT 0.50 (15 Month): 0.37%
RRT 0.58 (15 Month): 0.26%
RRT 0.67 (15 Month): 0.07%
RRT 3.1-3.2 (15 Month): 0.41%
RRT 3.65 (15 Month): 0.63%
RRT 4.97 (15 Month): 0.28%
Total Related Substances (15 Month): 3%
pH (15 Month): 7.3
(DACH) Pt-diaquo (~RRT 0.3) (18 Month): 0.14%
(DACH) Pt-monoaquo (~RRT 0.7) (18 Month): 1.04%
Assay (Potency) (18 Month): 99.0%
PT-112 Dimer (~RRT 4.0) (18 Month): 0.30%
RRT 0.41 (18 Month): 0.06%
RRT 0.50 (18 Month): 0.36%
RRT 0.58 (18 Month): 0.29%
RRT 0.67 (18 Month): 0.11%
RRT 0.86 (18 Month): 0.14%
RRT 3.1-3.2 (18 Month): 0.40%
RRT 3.65 (18 Month): 0.75%
RRT 4.97 (18 Month): 0.43%
Total Related Substances (18 Month): 4%
pH (18 Month): 7.2
(DACH) Pt-diaquo (~RRT 0.3) (24 Month): 0.15%
(DACH) Pt-monoaquo (~RRT 0.7) (24 Month): 0.83%
Assay (Potency) (24 Month): 97.5%
PT-112 Dimer (~RRT 4.0) (24 Month): 0.36%
RRT 0.41 (24 Month): 0.12%
RRT 0.46 (24 Month): 0.10%
RRT 0.50 (24 Month): 0.70%
RRT 0.58 (24 Month): 0.17%
RRT 0.67 (24 Month): 0.07%
RRT 3.1-3.2 (24 Month): 0.41%
RRT 3.46 (24 Month): 0.07%
RRT 3.65 (24 Month): 1.24%
RRT 4.97 (24 Month): 0.73%
Total Related Substances (24 Month): 5%
pH (24 Month): 7.2
Particulate Matter (Light Obscuration) (24 Month, first value): 81 particles particles per container
Particulate Matter (Light Obscuration) (24 Month, second value): 4 particles particles per container
(DACH) Pt-diaquo (~RRT 0.3) (Initial): 0.16%
(DACH) Pt-monoaquo (~RRT 0.7) (Initial): 0.98%
Assay (Potency) (Initial): 99.8%
PT-112 Dimer (~RRT 4.0) (Initial): 0.19%
RRT 0.58 (Initial): 0.13%
RRT 0.67 (Initial): 0.05%
Total Related Substances (Initial): 2%
pH (Initial): 7.2
Particulate Matter (Light Obscuration) (Initial, first value): 219 particles particles per container
Particulate Matter (Light Obscuration) (Initial, second value): 11 particles particles per container
